# Read-outs that look alike come from different tables or passages of the source.
# Legend:
# [1] = test system: ATCC 25922 ECO.35; assay: MIC, CLSI broth microdilution, Gram-negative clinical isolates; type: cell-based, Escherichia coli; details: for MIC: Escherichia coli, read-out: Minimum inhibitory concentration (MIC)
# Description: (§1) Plates were incubated at 35° C. for 24 h.
# (§2) The activity of paenibacterin was also tested against clinical isolates of the following Gram-negative bacterial strains: four strains of the species Pseudomonas aeruginosa (PAE), three strains of the species Acinetobacter baumannii (ABA), two strains of the species Escherichia coli (ECO), and four strains of the species Klebsiella pneumoniae (KPN). Particularly, the strains of Gram-negative bacteria included polymyxin B-resistant (PMB-R) and polymyxin B-sensitive (PMB-S) strains of each above listed species. The MICs were determined using the above described CLSI broth microdilution method, in which the method was performed with both non-binding surface coated (NBS) and polystyrene (PS) 96-well plates (Tables 11 and 12, respectively). The MICs were generally lower in the NBS 96-well plates as compared to the PS 96-well plates.
# [2] = test system: ECO.2276; assay: as above; type: cell-based, Escherichia coli; details: for MIC: Escherichia coli, read-out: Minimum inhibitory concentration (MIC)
# Description: as §1, §2
# [3] = test system: PAE.44; assay: as above; type: cell-based, Pseudomonas aeruginosa
# Description: as §1, §2
# [4] = test system: PAE.2281; assay: as above; type: cell-based, Pseudomonas aeruginosa; details: for MIC: Pseudomonas aeruginosa, read-out: Minimum inhibitory concentration (MIC)
# Description: as §1, §2
# [5] = test system: PAE.2325; assay: as above; type: cell-based, Pseudomonas aeruginosa; details: for MIC: Pseudomonas aeruginosa, read-out: Minimum inhibitory concentration (MIC)
# Description: as §1, §2
# [6] = test system: PAE.999; assay: as above; type: cell-based, Pseudomonas aeruginosa; details: for MIC: Pseudomonas aeruginosa, read-out: Minimum inhibitory concentration (MIC)
# Description: as §1, §2
# [7] = test system: KPN.674; assay: as above; type: cell-based, Klebsiella pneumoniae; details: for MIC: Klebsiella pneumoniae, read-out: Minimum inhibitory concentration (MIC)
# Description: as §1, §2
# [8] = test system: PMB-R, KPN.2463; assay: as above; type: cell-based, Klebsiella pneumoniae
# Description: as §1, §2
# [9] = test system: PMB-S, KPN.2461; assay: as above; type: cell-based, Klebsiella pneumoniae
# Description: as §1, §2
# [10] = test system: KPN.2317; assay: as above; type: cell-based, Klebsiella pneumoniae; details: for MIC: Klebsiella pneumoniae, read-out: Minimum inhibitory concentration (MIC)
# Description: as §1, §2
# [11] = test system: MSSA ATCC 29213 SAU.42; assay: microbe, parasite or virus in culture
# Description: (§3) The activity of paenibacterin against several strains of Gram-positive and Gram-negative foodborne pathogens is summarized in Table 10. The data is reported as minimum inhibitory concentrations (MIC) as an average of three replicates for paenibacterin against the various listed bacterial strains. […] MICs were determined according to the CLSI broth microdilution method (see, Clinical and Laboratory Standards Institute (CLSI). 2009. Methods for dilution antimicrobial susceptibility tests for bacteria that grow aerobically; approved standard. […]. CLSI, Wayne, Pa.). Briefly, HPLC-purified paenibacterin was dissolved in methanol and diluted to appropriate concentration with cation-adjusted Mueller-Hinton II broth (Difco). Aliquots (25 μl) of serially-diluted paenibacterin was dispensed into wells of a 96-well plate; an equal amount of 1/10 diluted overnight bacterial culture was added to wells. Plates were incubated at 35° C. for 24 h. Cell growth after incubation was examined and determined using a microtiter plate reader at 600 nm. Concentration of paenibacterin is determined based on a molecular weight of 1604 Da.
# (§4) The activity of paenibacterin was further tested against clinical isolates of the following Gram-positive bacteria: methicillin-sensitive Staphylococcus aureus (MSSA), methicillin-resistant S. aureus (MRSA), vancomycin-sensitive Enterococcus faecalis, vancomycin-resistant E. faecalis (VRE), Streptococcus pneumoniae, and laboratory derived daptomycin-resistant (DR) MSSA, MRSA, and VRE strains. The MICs were determined using the above described CLSI broth microdilution method, in which the method was performed with non-binding surface coated (NBS) 96-well plates.
# [12] = test system: DS-VRE ATCC 700802 EFS.807; assay: microbe, parasite or virus in culture
# Description: as §3, §4
# [13] = test system: WT ATCC 29212 EFS.43; assay: microbe, parasite or virus in culture
# Description: as §3, §4
# [14] = test system: DR-VRE from EFS.807 EFS.2731; assay: microbe, parasite or virus in culture
# Description: as §3, §4
# [15] = test system: DR-MSSA from SAU.42 SAU.278; assay: microbe, parasite or virus in culture
# Description: as §3, §4
# [16] = test system: DR-MRSA from MW2 SP SAU.1616; assay: microbe, parasite or virus in culture
# Description: as §3, §4
# [17] = test system: WT ATCC 49619 SPN.31; assay: microbe, parasite or virus in culture
# Description: as §3, §4
# [18] = test system: MRSA ATCC 43300 SAU.399; assay: microbe, parasite or virus in culture
# Description: as §3, §4
# [19] = test system: ABA.2315; assay: MIC, CLSI broth microdilution, Gram-negative clinical isolates; type: cell-based, Acinetobacter baumannii
# Description: as §1, §2
# [20] = test system: ABA.1570; assay: as above; type: cell-based, Acinetobacter baumannii; details: for MIC: Acinetobacter baumannii, read-out: Minimum inhibitory concentration (MIC)
# Description: as §1, §2
# [21] = test system: ABA.2232; assay: as above; type: cell-based, Acinetobacter baumannii; details: for MIC: Acinetobacter baumannii, read-out: Minimum inhibitory concentration (MIC)
# Description: as §1, §2
# [22] = polystyrene (PS) 96-well plates
molecule,measurement,setting,value
NC[C@H]1O[C@H](O[C@H]2[C@H](O)[C@@H](O[C@H]3O[C@H](CO)[C@@H](O)[C@H](N)[C@H]3O)[C@H](N)C[C@@H]2N)[C@H](N)C[C@@H]1O [tobramycin],MIC,"[1]; ATCC25922, ECO.35 (ATCC 25922), NBS 96-well plates",1 µg/mL
same,MIC,"[1]; ATCC25922, ECO.35, PS 96-well plates",1 µg/mL
same,MIC,[2]; NBS 96-well plates,1 to 2 µg/mL
same,MIC,[2]; PS 96-well plates,2 µg/mL
same,MIC,"[3]; Pseudomonas aeruginosa, non-binding surface coated (NBS) 96-well plates, read-out: Minimum inhibitory concentration (MIC)",0.5 µg/mL
same,Minimum inhibitory concentration (MIC),[3]; [22],0.5 µg/mL
same,MIC,[4]; NBS 96-well plates,1 to 2 µg/mL
same,MIC,[4]; PS 96-well plates,1 µg/mL
same,MIC,[5]; NBS 96-well plates,> 32 µg/mL
same,MIC,[5]; PS 96-well plates,> 32 µg/mL
same,MIC,[6]; NBS 96-well plates,32 µg/mL
same,MIC,[6]; PS 96-well plates,> 32 µg/mL
same,MIC,[7]; NBS 96-well plates,8 µg/mL
same,MIC,[7]; PS 96-well plates,8 µg/mL
same,Minimum inhibitory concentration (MIC),"[8]; KPN.2463, PS 96-well plates",32 µg/mL
same,MIC,"[8]; Klebsiella pneumoniae, KPN.2463 (PMB-R), NBS 96-well plates, read-out: Minimum inhibitory concentration (MIC)",32 µg/mL
same,Minimum inhibitory concentration (MIC),"[9]; KPN.2461, PS 96-well plates",32 µg/mL
same,MIC,"[9]; Klebsiella pneumoniae, KPN.2461 (PMB-S), NBS 96-well plates, read-out: Minimum inhibitory concentration (MIC)",32 µg/mL
same,MIC,[10]; NBS 96-well plates,> 32 µg/mL
same,MIC,[10]; PS 96-well plates,> 32 µg/mL
same,MIC,"[11]; Staphylococcus aureus, ATCC29213|MSSA, read-out: Minimum inhibitory concentration (MIC)",0.5 µg/mL
same,MIC,"[12]; Enterococcus faecalis, ATCC700802|VRE, read-out: Minimum inhibitory concentration (MIC)",> 32 µg/mL
same,MIC,"[13]; Enterococcus faecalis, ATCC29212, read-out: Minimum inhibitory concentration (MIC)",8 µg/mL
same,MIC,"[14]; Enterococcus faecalis, VRE, read-out: Minimum inhibitory concentration (MIC)",> 32 µg/mL
same,MIC,"[15]; Staphylococcus aureus, MSSA, read-out: Minimum inhibitory concentration (MIC)",0.5 µg/mL
same,MIC,"[16]; Staphylococcus aureus, MRSA, read-out: Minimum inhibitory concentration (MIC)",0.5 µg/mL
same,MIC,"[17]; Streptococcus pneumoniae, ATCC49619, read-out: Minimum inhibitory concentration (MIC)",0.25 µg/mL
same,MIC,"[18]; Staphylococcus aureus, ATCC43300|MRSA, read-out: Minimum inhibitory concentration (MIC)",> 32 µg/mL
same,MIC,"[19]; Acinetobacter baumannii, NBS 96-well plates, read-out: Minimum inhibitory concentration (MIC)",> 32 µg/mL
same,Minimum inhibitory concentration (MIC),[19]; PS 96-well plates,>32 µg/mL
same,MIC,[20]; NBS 96-well plates,32 µg/mL
same,MIC,[20]; PS 96-well plates,16 µg/mL
same,MIC,[21]; NBS 96-well plates,0.5 µg/mL
same,MIC,[21]; PS 96-well plates,1 µg/mL
CCCCCCCCCC(=O)N[C@@H](Cc1c[nH]c2ccccc12)C(=O)N[C@H](CC(N)=O)C(=O)N[C@@H](CC(=O)O)C(=O)N[C@@H]1C(=O)NCC(=O)N[C@@H](CCCN)C(=O)N[C@@H](CC(=O)O)C(=O)N[C@H](C)C(=O)N[C@@H](CC(=O)O)C(=O)NCC(=O)N[C@H](CO)C(=O)N[C@@H]([C@H](C)CC(=O)O)C(=O)N[C@@H](CC(=O)c2ccccc2N)C(=O)O[C@@H]1C [daptomycin],Minimum inhibitory concentration (MIC),[11]; ATCC 29213,0.5 µg/mL
same,Minimum inhibitory concentration (MIC),[12]; ATCC 700802,1 µg/mL
same,Minimum inhibitory concentration (MIC),[13]; ATCC 29212,2 µg/mL
same,Minimum inhibitory concentration (MIC),"[14]; EFS.2731, DR-VRE from EFS.807, NBS 96-well plates",>32 µg/mL
same,Minimum inhibitory concentration (MIC),"[15]; SAU.278, DR-MSSA from SAU.42, NBS 96-well plates",8 µg/mL
same,Minimum inhibitory concentration (MIC),"[16]; SAU.1616, DR-MRSA from MW2 SP, NBS 96-well plates",16 µg/mL
same,Minimum inhibitory concentration (MIC),[17]; ATCC 49619,0.5 µg/mL
same,Minimum inhibitory concentration (MIC),[18]; ATCC 43300,0.5 µg/mL
polymyxin B sulfate,Minimum inhibitory concentration (MIC),"[1]; ECO.35 (ATCC 25922), NBS 96-well plates",0.06 µg/mL
same,Minimum inhibitory concentration (MIC),"[1]; ECO.35, PS 96-well plates",2 µg/mL
same,Minimum inhibitory concentration (MIC),[2]; NBS 96-well plates,8 µg/mL
same,Minimum inhibitory concentration (MIC),[2]; PS 96-well plates,8 µg/mL
same,Minimum inhibitory concentration (MIC),[3]; non-binding surface coated (NBS) 96-well plates,0.125 µg/mL
same,Minimum inhibitory concentration (MIC),[3]; [22],2 µg/mL
same,Minimum inhibitory concentration (MIC),[4]; NBS 96-well plates,16 µg/mL
same,Minimum inhibitory concentration (MIC),[4]; PS 96-well plates,16 µg/mL
same,Minimum inhibitory concentration (MIC),[5]; NBS 96-well plates,0.25 µg/mL
same,Minimum inhibitory concentration (MIC),[5]; PS 96-well plates,2 µg/mL
same,Minimum inhibitory concentration (MIC),[6]; NBS 96-well plates,0.25 µg/mL
same,Minimum inhibitory concentration (MIC),[6]; PS 96-well plates,2 µg/mL
same,Minimum inhibitory concentration (MIC),[7]; NBS 96-well plates,0.125 µg/mL
same,Minimum inhibitory concentration (MIC),[7]; PS 96-well plates,2 µg/mL
same,Minimum inhibitory concentration (MIC),"[8]; KPN.2463 (PMB-R), NBS 96-well plates",2 to 8 µg/mL
same,Minimum inhibitory concentration (MIC),"[8]; KPN.2463, PS 96-well plates",32 µg/mL
same,Minimum inhibitory concentration (MIC),"[9]; KPN.2461 (PMB-S), NBS 96-well plates",0.06 to 0.13 µg/mL
same,Minimum inhibitory concentration (MIC),"[9]; KPN.2461, PS 96-well plates",2 µg/mL
same,Minimum inhibitory concentration (MIC),[10]; NBS 96-well plates,>64 µg/mL
same,Minimum inhibitory concentration (MIC),[10]; PS 96-well plates,>64 µg/mL
same,Minimum inhibitory concentration (MIC),[19]; NBS 96-well plates,8 µg/mL
same,Minimum inhibitory concentration (MIC),[19]; PS 96-well plates,64 µg/mL
same,Minimum inhibitory concentration (MIC),[20]; NBS 96-well plates,0.0625 µg/mL
same,Minimum inhibitory concentration (MIC),"[20]; NBS 96-well plates, listed as polymyxin B",0.06 µg/mL
same,Minimum inhibitory concentration (MIC),[20]; PS 96-well plates,2 µg/mL
same,Minimum inhibitory concentration (MIC),[21]; NBS 96-well plates,0.06 µg/mL
same,Minimum inhibitory concentration (MIC),[21]; PS 96-well plates,2 µg/mL

# From patent US9017692B2, “Antimicrobial agent, bacterial strain, biosynthesis, and methods of use” (priority 2011, dated 2015)
